In the supplement of paper PMC10307832:

Legend:
Experiment in all cases: relative viability (nuclei count vs DMSO), 5 days (fraction); higher = more cells survive
[1] = compound: O=C(/C=C/c1ccccc1)NC(NC(=S)Nc1cccc2cccnc12)C(Cl)(Cl)Cl [Salubrinal] + CC(=O)Nc1cccc(-n2c(=O)n(C3CC3)c(=O)c3c(Nc4ccc(I)cc4F)n(C)c(=O)c(C)c32)c1 [Trametinib] (partner 0.02 µM)
Procedure, shortened: (§1)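 Nuclei were stained with Hoechst during a one-step fixation (final 0.05% Triton X-100, 1% formaldehyde, 1 ug/ml Hoechst) carried out 5 days after dosing, then counted on 4× images. The cells, lung cancer lines in 1536-well plates, had been dosed by pin tool the day after seeding with one drug alone or a fixed anchor-drug dose plus five library-drug doses (not always all listed) in √10 steps. Relative viability is the nuclei count in treated wells divided by that in vehicle wells, and each value is the median of duplicate plates.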

[2] = compound: Cc1ccc2nc(NCCN)c3ncc(C)n3c2c1 + Cc1nc(Nc2ncc(C(=O)Nc3c(C)cccc3Cl)s2)cc(N2CCN(CCO)CC2)n1 [Dasatinib] (partner 0.075 µM)
Procedure, shortened: as §1

[3] = compound: Cc1ccc2nc(NCCN)c3ncc(C)n3c2c1 + CC(C)C[C@H](NC(=O)[C@H](Cc1ccccc1)NC(=O)c1cnccn1)B(O)O [Bortezomib] (partner 0.002 µM)
Procedure, shortened: as §1

[4] = compound: O=C(/C=C/c1ccccc1)NC(NC(=S)Nc1cccc2cccnc12)C(Cl)(Cl)Cl [Salubrinal] + COc1cc2c(Oc3ccc(NC(=O)C4(C(=O)Nc5ccc(F)cc5)CC4)cc3F)ccnc2cc1OCCCN1CCOCC1 [Foretinib] (partner 0.25 µM)
Procedure, shortened: as §1

NCI-H1975
relative viability ([1]; first compound 0.08 µM): 0.281
relative viability ([1]; first compound 0.253 µM): 0.309
relative viability ([1]; first compound 0.8 µM): 0.36
relative viability ([1]; first compound 2.53 µM): 0.376
relative viability ([1]; first compound 8 µM): 0.312
relative viability ([2]; first compound 0.04 µM): 0.409
relative viability ([2]; first compound 0.1265 µM): 0.387
relative viability ([2]; first compound 0.4 µM): 0.347
relative viability ([2]; first compound 1.265 µM): 0.359
relative viability ([2]; first compound 4 µM): 0.304
relative viability ([3]; first compound 0.04 µM): 0.363
relative viability ([3]; first compound 0.1265 µM): 0.384
relative viability ([3]; first compound 0.4 µM): 0.428
relative viability ([3]; first compound 1.265 µM): 0.375
relative viability ([3]; first compound 4 µM): 0.407
relative viability ([4]; first compound 0.08 µM): 1.05
relative viability ([4]; first compound 0.253 µM): 0.86
relative viability ([4]; first compound 0.8 µM): 1
relative viability ([4]; first compound 2.53 µM): 0.944
relative viability ([4]; first compound 8 µM): 0.923

CAL-12T
relative viability ([1]; first compound 0.08 µM): 0.378
relative viability ([1]; first compound 0.253 µM): 0.406
relative viability ([1]; first compound 0.8 µM): 0.327
relative viability ([1]; first compound 2.53 µM): 0.244
relative viability ([1]; first compound 8 µM): 0.269
relative viability ([2]; first compound 0.04 µM): 0.34
relative viability ([2]; first compound 0.1265 µM): 0.342
relative viability ([2]; first compound 0.4 µM): 0.373
relative viability ([2]; first compound 1.265 µM): 0.387
relative viability ([2]; first compound 4 µM): 0.294
relative viability ([3]; first compound 0.04 µM): 1.03
relative viability ([3]; first compound 0.1265 µM): 0.889
relative viability ([3]; first compound 0.4 µM): 0.9
relative viability ([3]; first compound 1.265 µM): 0.978
relative viability ([3]; first compound 4 µM): 0.776
relative viability ([4]; first compound 0.08 µM): 1.14
relative viability ([4]; first compound 0.253 µM): 1.07
relative viability ([4]; first compound 0.8 µM): 1.09
relative viability ([4]; first compound 2.53 µM): 0.978
relative viability ([4]; first compound 8 µM): 0.991

NCI-H2342
relative viability ([1]; first compound 0.08 µM): 0.966
relative viability ([1]; first compound 0.253 µM): 0.806
relative viability ([1]; first compound 0.8 µM): 0.758
relative viability ([1]; first compound 2.53 µM): 0.775
relative viability ([1]; first compound 8 µM): 0.88
relative viability ([2]; first compound 0.04 µM): 0.363
relative viability ([2]; first compound 0.1265 µM): 0.363
relative viability ([2]; first compound 0.4 µM): 0.328
relative viability ([2]; first compound 1.265 µM): 0.284
relative viability ([2]; first compound 4 µM): 0.313
relative viability ([4]; first compound 0.08 µM): 1.1
relative viability ([4]; first compound 0.253 µM): 1.04
relative viability ([4]; first compound 0.8 µM): 1.1
relative viability ([4]; first compound 2.53 µM): 1.09
relative viability ([4]; first compound 8 µM): 0.927

HCC-44
relative viability ([1]; first compound 0.08 µM): 1.19
relative viability ([1]; first compound 0.253 µM): 1.11
relative viability ([1]; first compound 0.8 µM): 1.16
relative viability ([1]; first compound 2.53 µM): 1.09
relative viability ([1]; first compound 8 µM): 1.04
relative viability ([3]; first compound 0.04 µM): 0.93
relative viability ([3]; first compound 0.1265 µM): 0.897
relative viability ([3]; first compound 0.4 µM): 0.806
relative viability ([3]; first compound 1.265 µM): 0.882
relative viability ([3]; first compound 4 µM): 0.922

EKVX
relative viability ([1]; first compound 0.08 µM): 0.332
relative viability ([1]; first compound 0.253 µM): 0.47
relative viability ([1]; first compound 0.8 µM): 0.565
relative viability ([1]; first compound 2.53 µM): 0.303
relative viability ([1]; first compound 8 µM): 0.358
relative viability ([2]; first compound 0.04 µM): 0.523
relative viability ([2]; first compound 0.1265 µM): 0.548
relative viability ([2]; first compound 0.4 µM): 0.466
relative viability ([2]; first compound 1.265 µM): 0.37
relative viability ([2]; first compound 4 µM): 0.46
relative viability ([3]; first compound 0.04 µM): 0.998
relative viability ([3]; first compound 0.1265 µM): 0.994
relative viability ([3]; first compound 0.4 µM): 0.996
relative viability ([3]; first compound 1.265 µM): 1.17
relative viability ([3]; first compound 4 µM): 0.951
relative viability ([4]; first compound 0.08 µM): 0.755
relative viability ([4]; first compound 0.253 µM): 0.776
relative viability ([4]; first compound 0.8 µM): 0.82
relative viability ([4]; first compound 2.53 µM): 0.714
relative viability ([4]; first compound 8 µM): 0.792

NCI-H1651
relative viability ([1]; first compound 0.08 µM): 0.848
relative viability ([1]; first compound 0.253 µM): 0.833
relative viability ([1]; first compound 0.8 µM): 0.898
relative viability ([1]; first compound 2.53 µM): 0.829
relative viability ([1]; first compound 8 µM): 0.929
relative viability ([2]; first compound 0.04 µM): 0.472
relative viability ([2]; first compound 0.1265 µM): 0.441
relative viability ([2]; first compound 0.4 µM): 0.422
relative viability ([2]; first compound 1.265 µM): 0.395
relative viability ([2]; first compound 4 µM): 0.392
relative viability ([3]; first compound 0.04 µM): 0.966
relative viability ([3]; first compound 0.1265 µM): 0.954
relative viability ([3]; first compound 0.4 µM): 1.07
relative viability ([3]; first compound 1.265 µM): 0.972
relative viability ([3]; first compound 4 µM): 0.676
relative viability ([4]; first compound 0.08 µM): 1.01
relative viability ([4]; first compound 0.253 µM): 0.759
relative viability ([4]; first compound 0.8 µM): 1.02
relative viability ([4]; first compound 2.53 µM): 0.748
relative viability ([4]; first compound 8 µM): 0.772

NCI-H1648
relative viability ([1]; first compound 0.08 µM): 0.657
relative viability ([1]; first compound 0.253 µM): 0.456
relative viability ([1]; first compound 0.8 µM): 0.662
relative viability ([1]; first compound 2.53 µM): 0.492
relative viability ([1]; first compound 8 µM): 0.325

NCI-H1703
relative viability ([3]; first compound 0.04 µM): 0.34
relative viability ([3]; first compound 0.1265 µM): 0.329
relative viability ([3]; first compound 0.4 µM): 0.329
relative viability ([3]; first compound 1.265 µM): 0.347
relative viability ([3]; first compound 4 µM): 0.234
relative viability ([4]; first compound 0.08 µM): 0.319
relative viability ([4]; first compound 0.253 µM): 0.459
relative viability ([4]; first compound 0.8 µM): 0.349
relative viability ([4]; first compound 2.53 µM): 0.354
relative viability ([4]; first compound 8 µM): 0.337

Calu-6
relative viability ([3]; first compound 0.04 µM): 1.08
relative viability ([3]; first compound 0.1265 µM): 0.891
relative viability ([3]; first compound 0.4 µM): 1.03
relative viability ([3]; first compound 1.265 µM): 0.912
relative viability ([3]; first compound 4 µM): 0.603
relative viability ([4]; first compound 0.08 µM): 0.979
relative viability ([4]; first compound 0.253 µM): 0.865
relative viability ([4]; first compound 0.8 µM): 0.907
relative viability ([4]; first compound 2.53 µM): 0.806
relative viability ([4]; first compound 8 µM): 0.803

EBC-1
relative viability ([3]; first compound 0.04 µM): 0.549
relative viability ([3]; first compound 0.1265 µM): 0.526
relative viability ([3]; first compound 0.4 µM): 0.486
relative viability ([3]; first compound 1.265 µM): 0.406
relative viability ([3]; first compound 4 µM): 0.31
relative viability ([4]; first compound 0.08 µM): 0.112
relative viability ([4]; first compound 0.253 µM): 0.0951
relative viability ([4]; first compound 0.8 µM): 0.12
relative viability ([4]; first compound 2.53 µM): 0.102
relative viability ([4]; first compound 8 µM): 0.0993

SW 1573
relative viability ([1]; first compound 0.08 µM): 0.789
relative viability ([1]; first compound 0.253 µM): 0.615
relative viability ([1]; first compound 0.8 µM): 0.588
relative viability ([1]; first compound 2.53 µM): 0.485
relative viability ([1]; first compound 8 µM): 0.469
relative viability ([2]; first compound 0.04 µM): 0.576
relative viability ([2]; first compound 0.1265 µM): 0.534
relative viability ([2]; first compound 0.4 µM): 0.468
relative viability ([2]; first compound 1.265 µM): 0.48
relative viability ([2]; first compound 4 µM): 0.244
relative viability ([3]; first compound 0.04 µM): 0.978
relative viability ([3]; first compound 0.1265 µM): 1.08
relative viability ([3]; first compound 0.4 µM): 0.965
relative viability ([3]; first compound 1.265 µM): 1.2
relative viability ([3]; first compound 4 µM): 0.55
relative viability ([4]; first compound 0.08 µM): 0.875
relative viability ([4]; first compound 0.253 µM): 0.719
relative viability ([4]; first compound 0.8 µM): 0.979
relative viability ([4]; first compound 2.53 µM): 0.954
relative viability ([4]; first compound 8 µM): 1.07
